Where two headings read alike, the source gives them in different places.
What was measured:
THP-1 cells = assay: THP-1 repression of TNFα/IFNγ-induced MCP-1, IL-6, IL-8 release; format: cell-based, human; details: for IC50: Homo sapiens, THP-1, TNFα (60 ng/ml)/IFNγ (40 ng/ml); for Max. eff., IL-6 repression / Max. eff., IL-8 repression / Max. eff., MCP-1 repression: THP-1, I/T, prednisolone = 100%
Experimental: After 6 hours total RNA was isolated and further processed for microarray hybridization as described for the HepG2 cells. The data from all microarray experiments have been deposited in the NCBI Gene Expression Omnibus (GEO) under accession number (identifier will be included in proof). […] Expression of FKBP51, MCP-1, IL-6 and IL-8 protein was measured by specific […]; #A[…] [MCP-1], #A[…] [IL-6] and #A[…] [IL-8]) according to the manufacturer manual. […] Expression of FKBP51, DUSP1 and GILZ was measured by Q-PCR according to the same procedure as described for the HepG2 cells. In this case the following primer-pairs were used: for GAPDH: [NT] and [NT]; for FKBP51: [NT] and [NT]; for DUSP1: [NT] and [NT]; for GILZ: [NT] and [NT]. For the evaluation of protein expression, cells were incubated overnight with a whole dose range of compounds. Supernatants were collected to determine cytokine levels and cell lysates were generated by repeated freeze-thaw cycles to measure expression of FKBP51 protein. Expression of FKBP51, MCP-1, IL-6 and IL-8 was measured by specific […]; #A[…] [MCP-1], #A[…] [IL-6] and #A[…] [IL-8]) according to the manufacturer manual. […] Samples were incubated for 60 min at 23 C. […] Plates were measured using an EnVision-Alpha Reader.

HepG2 cells = assay: Gene expression profiling (microarray) in HepG2 cells; format: cell-based, human; details: HepG2, 1 μM compound, 6 hours; prednisolone set at 100%
Experimental: HepG2-8/97-WS.5 cells, deprived from serum for 18 hours, were stimulated with glucocorticoid and 0.5 mM cAMP for 6 hours. RNA was isolated and used for double stranded cDNA synthesis using the One-Cycle Target Labeling Kit (Affymetrix Santa Clara, CA). This cDNA was used as a template for the preparation of biotin-labeled cRNA using the GeneChip IVT Labeling Kit (Affymetrix Santa Clara, CA). Biotin-labeled cRNA was fragmented and hybridized at 45°C for 16–17 hours to the Human Genome U133A 2.0 Array or the Human Genome U133 Plus 2.0 Array (Affymetrix, Santa Clara, CA). (for more detailed information see Supportive Information) (SI text). Arrays were stained with phycoerythrin-streptavidin conjugate (Molecular Probes, Eugene, OR), and the signals were amplified by staining the array with biotin-labeled anti-streptavidin antibody (Vector Laboratories, Burlingame, CA) followed by phycoerythrin-streptavidin. […] Data was saved as raw image file and quantified using GCOS (Affymetrix). […]
HepG2-8/97-WS.5 cells were seeded at 2.10^5 cells/mL in a 24-well plate in DMEM/F12 medium (Gibco), supplemented with 80 U/mL penicillin, 80 μg/mL streptomycin and 5% Fetal Bovine Serum (Invitrogen). […] RNA quantity and quality were determined using the Agilent […] bioanalyzer. […] Data was saved as raw image file and quantified using GCOS (Affymetrix).

[1] = tested on: coronary artery smooth muscle cells; assay: BioMAP assay CASM3C; format: cell-based, human; details: 1 μM, prednisolone = 100%
Experimental: Next, effects of Org 214007-0 on the cytokine release by primary human whole blood cells treated with either LPS or anti-CD28/PMA were tested. […] These assays make use of different types of primary human cells, in this case coronary artery smooth muscle cells and neonatal foreskin fibroblasts, in an inflammatory environment, [28]. […] When all repressed and induced proteins are taken into account, a relative TI value for Org 214007-0 could be deduced of 1.7 in coronary artery smooth muscle cells and of 2.2 in neonatal foreskin fiboblasts.

[2] = tested on: muscle tissue from arthritic mice; assay: Microarray on muscle tissue mRNA from CIA mice; format: in vivo, mouse; details: day 21, 2.5 hours after final oral dose, 1.5 mg/kg prednisolone or 0.3 mg/kg Org 214007-0, prednisolone = 100%
Text: Besides these groups of mice, one group of healthy mice (sham-immunized and vehicle-treated) was included. Collected tissue was used to isolate mRNA for microarray analysis. […] We also calculated a mean fold change for all induced and repressed genes by both compounds derived from this microarray. […] Two and a half hours after the final treatment animals were sacrificed and samples were collected from the thigh muscle (musculus tensor fasciae latae and musculus rectus femoris). Samples were stored immediately at −80°C and send to Covance (Princeton, New Jersey) for RNA extraction and subsequent analysis of gene expression on the Mouse Genome 430A 2.0 array. For statistical analysis, the. CEL files obtained after hybridization were analyzed with the R (www.r-project.org) and the BioConductor software package (www.bioconductor.org) as described previously. Normalization was done using gcrma. Building of the experimental design and calculation of the ratios was done with the limma package. Differentially expressed probe sets were selected on basis of the fold change and the adjusted p-value (Benjamini-Hochberg correction). Multivariate data analysis and clustering was done with standard methods in the R software package (www.r-project.org). A therapeutic index for Org 214007-0 was calculated in the same way as was described for the THP-1 microarray data.

SMILES | IC50 (THP-1 cells; read-out: IC50, IL-6 release) [µM] | IC50 (THP-1 cells; read-out: IC50, IL-8 release) [µM] | IC50 (THP-1 cells; read-out: IC50, MCP-1 release) [µM] | Max. eff., IL-6 repression (THP-1 cells) | Max. eff., IL-8 repression (THP-1 cells) | Max. eff., MCP-1 repression (THP-1 cells) | Max eff., induction of gene expression, micro-array (HepG2 cells) [%] | Max. eff., induction of serum amyloid A (SAA) [1] [%] | Max. eff., mean induction of genes, microarray [2] [%] | Max. eff., mean repression of genes, microarray [2] [%]
Cc1nnsc1C(=O)N[C@H]1CCN2c3ccc(C#N)cc3[C@@H](C)c3ccccc3[C@@H]2C1 [Org 214007-0] | 0.0093 | 0.011 | 0.0235 | 78 (±9) % | 74 (±10) % | 44 (±8) % | 67 | 58 | 25.7 | 87.7
C[C@]12C=CC(=O)C=C1CC[C@@H]1[C@@H]2[C@@H](O)C[C@@]2(C)[C@H]1CC[C@]2(O)C(=O)CO [prednisolone, reference compound] | 0.0341 | 0.0369 | 0.0699 | 100% | 100% | 100% | 100 | 100 | 100 | 100

Reference: article PMC3495945, “Org 214007-0: A Novel Non-Steroidal Selective Glucocorticoid Receptor Modulator with Full Anti-Inflammatory Properties and Improved Therapeutic Index” (PLoS ONE, 2012)
